For the assay, the target named is MAPK14 (human) (UniProt Q16539). Kind of assay: Assessment of MAPK14 Kinase Activity.
MAPK14 (human), sequence (Q16539 whole entry, looked up): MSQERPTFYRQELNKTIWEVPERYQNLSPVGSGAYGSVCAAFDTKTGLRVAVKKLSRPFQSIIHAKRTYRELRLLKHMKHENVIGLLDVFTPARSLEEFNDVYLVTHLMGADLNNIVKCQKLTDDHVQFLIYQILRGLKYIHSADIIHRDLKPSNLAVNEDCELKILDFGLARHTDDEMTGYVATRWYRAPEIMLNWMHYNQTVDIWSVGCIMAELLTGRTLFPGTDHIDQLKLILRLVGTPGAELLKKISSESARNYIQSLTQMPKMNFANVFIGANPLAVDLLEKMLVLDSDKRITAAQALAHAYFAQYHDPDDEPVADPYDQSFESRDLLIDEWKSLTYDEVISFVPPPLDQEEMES

As to `Cc1ccc(C(=O)OCCN(C)C)cc1-n1c(C)cc(OCc2ccc(F)cc2CNC(=O)Nc2cc(C(C)(C)C)nn2-c2cccc(OCCO)c2)c(Cl)c1=O`, the IC50 turned out to be 1.4 nM. This lies in the single-digit nanomolar range.
Next, `Cc1cc(OCc2ccccc2CNC(=O)Nc2cc(C3CC3)nn2-c2ccccc2)c(Br)c(=O)n1Cc1ccccc1`: 176 nM; `COc1ccccc1Cn1c(C)cc(OCc2ccccc2CNC(=O)Nc2cc(C(C)CSC)nn2-c2cccc(O)c2)c(Cl)c1=O` (stereo unspecified): 20.5 nM.
Next, `Cc1cc(OCc2ccccc2CNC(=O)Nc2cc(C(C)(C)C)nn2-c2ccc(Cl)c(O)c2)c(Cl)c(=O)n1Cc1ccc(C(=O)CN)cc1`: 2.4 nM; `Cc1ccc(C(=O)OCCO)cc1-n1c(C)cc(OCc2ccc(F)cc2CNC(=O)Nc2cc(C(C)(C)C)nn2-c2cccc(OCCO)c2)c(Cl)c1=O`: 1.7 nM.
The value for `Cc1cc(OCc2ccccc2CNC(=O)Nc2cc(C(C)(C)C)nn2-c2ccc(O)c(Cl)c2)c(Cl)c(=O)n1Cc1cccc(C(O)C(N)=O)c1` (stereo unspecified) was 8.9 nM.
In turn, `Cc1cc(OCc2ccccc2CNC(=O)Nc2cc(C(C)(C)C)nn2-c2ccc(O)c(Cl)c2)c(Cl)c(=O)n1Cc1ccc(C(=O)CN)cc1` had an IC50 of 3.6 nM.
The value for `COC(=O)c1ccc(C)c(-n2c(SC)nc(OCc3ccc(F)cc3CNC(=O)Nc3cc(C(C)(C)C)nn3-c3ccc(C)cc3)cc2=O)c1` was 9.55 nM; that for `CCc1c(OCc2ccccc2CNC(=O)Nc2cc(C(C)(C)C)nn2-c2cccc(F)c2)ncn(Cc2ccccc2)c1=O` was 11 nM; that for `COC(=O)c1ccc(Cn2c(C)cc(OCc3ccccc3CNC(=O)Nc3cc(C(C)(C)C)nn3-c3ccc(C)cc3)c(Br)c2=O)cc1` was 16.9 nM.
Consider `Cc1ccc(C(=O)N[C@H](C)C(N)=O)cc1-n1c(C)cc(OCc2ccccc2CNC(=O)Nc2cc(C(C)(C)C)nn2-c2ccc(O)c(Cl)c2)c(Cl)c1=O`, for which the IC50 worked out at 2.5 nM.

By IC50 is commonly meant the concentration needed to halve the response being measured. A higher IC50 goes with weaker potency in that assay.

Values taken from the Kinase Knowledgebase extract (Sharma et al. 2016).
